# Laboratory results: patent publication US20250051363A1, “Substituted Pyrazolopyridines” (Neuro3 Therapeutics, Inc., priority 2023, published 2025)
# Target: LRRK2 wild-type (Homo sapiens (Human), UniProt Q5S007)
# Test: LanthaScreen LRRK2 Biochemical Activity Assay
# Settings: human recombinant LRRK2 (amino acids 970-2527) wild-type, ATP 57 μM, TR-FRET; read-out: IC50 (nM), inhibition of LRRK2 wild-type kinase activity
# Description: The ability of a compound of Formula (I) to inhibit LRRK2 kinase activity is measured using a LanthaScreen™ kinase activity assay. In general, in a LanthaScreen™ kinase activity assay, kinase, fluorescein-labeled substrate, and ATP are allowed to react. Then EDTA (to stop the reaction) and terbium-labeled antibody (to detect phosphorylated product) are added. In a LanthaScreen™ kinase reaction, the antibody associates with the phosphorylated fluorescein labeled substrate resulting in an increased TR-FRET value. The TR-FRET value is a dimensionless number that is calculated as the ratio of the acceptor (fluorescein) signal to the donor (terbium) signal. The amount of antibody that is bound to the tracer is directly proportional to the amount of phosphorylated substrate present, and in this manner, kinase activity can be detected and measured by an increase in the TR-FRET value. Accordingly, in this Example, enzyme reactions are carried out in a kinase reaction buffer in the presence or absence of representative compounds of Formula (I) at various concentrations in 384-well plate at room temperature for 60 minutes. The kinase reaction buffer contains human recombinant LRRK2 protein (amino acids 970-2527, 5 nM), ATP (57 μM for LRRK2 wild-type, 134 μM for G2019S mutant protein), Fluorescein-LRRKtide substrate (0.4 mM), 50 mM Tris pH 7.5, 10 mM MgCl2, 1 mM EGTA, 0.01% Brij™-35, and 2 mM DTT. The final reaction volume for each reaction is 10 μL. The reactions are initated by adding the substrate and stopped by the addition of 10 μL of a TR-FRET dilution buffer supplemented with a kinase quench buffer (10 mM EDTA final) and Tb-anti-pLRRKtide (2 nM final). The plate is further incubated at room temperature for another 60 minutes, and the fluorescent signals are read on an EnVision® multilabel plate reader (PerkinElmer, Waltham, MA) with excitation at 340 nm and emission at 495 and 520 nm. The assay signal is determined as a ratio of FRET-specific signal measured with emission filter at 520 nm to that of the signal measured with Tb-specific emission filter at 495 nm. IC50 values for compound-mediated enzyme inhibition are calculated using appropriate programs in GraphPad Prism software by plotting the logarithm of the compound concentrations versus percent inhibition. All reagents are purchased from Thermo Fisher Scientific.
# Chain of LRRK2 wild-type (Q5S007 970-2527): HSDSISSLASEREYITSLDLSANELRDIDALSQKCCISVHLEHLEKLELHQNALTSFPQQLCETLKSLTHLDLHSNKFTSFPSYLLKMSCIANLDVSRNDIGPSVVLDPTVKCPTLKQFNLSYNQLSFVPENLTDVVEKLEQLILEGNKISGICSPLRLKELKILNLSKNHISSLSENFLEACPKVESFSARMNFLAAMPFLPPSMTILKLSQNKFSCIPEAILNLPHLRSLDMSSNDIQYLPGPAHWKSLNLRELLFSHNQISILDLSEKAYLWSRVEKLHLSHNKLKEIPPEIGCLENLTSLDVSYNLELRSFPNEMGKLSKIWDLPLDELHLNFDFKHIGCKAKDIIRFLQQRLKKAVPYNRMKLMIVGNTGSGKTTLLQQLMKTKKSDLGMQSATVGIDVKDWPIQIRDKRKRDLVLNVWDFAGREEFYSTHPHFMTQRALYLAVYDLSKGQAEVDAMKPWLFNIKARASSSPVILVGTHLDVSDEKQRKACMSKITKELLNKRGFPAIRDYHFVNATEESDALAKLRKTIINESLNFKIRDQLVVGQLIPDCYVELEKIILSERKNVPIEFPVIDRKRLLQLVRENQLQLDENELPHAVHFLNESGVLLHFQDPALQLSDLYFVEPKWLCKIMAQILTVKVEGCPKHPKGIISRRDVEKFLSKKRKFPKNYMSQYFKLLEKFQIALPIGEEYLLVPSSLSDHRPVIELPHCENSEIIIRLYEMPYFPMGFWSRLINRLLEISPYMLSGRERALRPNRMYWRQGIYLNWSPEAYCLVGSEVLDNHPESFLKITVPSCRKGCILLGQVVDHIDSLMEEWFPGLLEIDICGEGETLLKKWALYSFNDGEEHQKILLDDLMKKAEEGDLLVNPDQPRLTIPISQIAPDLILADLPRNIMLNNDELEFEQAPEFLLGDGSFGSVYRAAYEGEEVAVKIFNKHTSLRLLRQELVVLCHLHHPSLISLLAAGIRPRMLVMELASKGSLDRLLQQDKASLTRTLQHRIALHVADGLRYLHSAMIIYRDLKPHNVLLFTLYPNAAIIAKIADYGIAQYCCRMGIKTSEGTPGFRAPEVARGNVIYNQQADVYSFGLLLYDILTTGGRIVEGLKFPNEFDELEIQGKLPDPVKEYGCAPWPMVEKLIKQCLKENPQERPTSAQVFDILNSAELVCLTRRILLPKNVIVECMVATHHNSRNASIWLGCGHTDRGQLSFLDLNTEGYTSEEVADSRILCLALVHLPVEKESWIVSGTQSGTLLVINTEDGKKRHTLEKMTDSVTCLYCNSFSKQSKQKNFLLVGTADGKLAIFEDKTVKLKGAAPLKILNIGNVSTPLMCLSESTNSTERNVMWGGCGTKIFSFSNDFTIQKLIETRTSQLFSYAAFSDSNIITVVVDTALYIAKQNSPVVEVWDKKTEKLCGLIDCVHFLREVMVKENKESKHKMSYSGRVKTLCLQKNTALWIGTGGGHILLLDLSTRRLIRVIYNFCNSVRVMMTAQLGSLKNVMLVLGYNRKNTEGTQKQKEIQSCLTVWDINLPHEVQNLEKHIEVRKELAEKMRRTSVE
row,SMILES,IC50
1,"O=C(Nc1ccn2ncc(-c3cccc(C4CCCNC4)n3)c2c1)c1ccccn1 (stereo not shown) [Example 72, N-(3-(6-(piperidin-3-yl)pyridin-2-yl)pyrazolo[1,5-a]pyridin-5-yl)picolinamide]",11 to 100 nM
2,"O=C(COc1ccccn1)Nc1ccn2ncc(-c3cccc(C4CCCNC4)n3)c2c1 (stereo not shown) [Example 73, N-(3-(6-(piperidin-3-yl)pyridin-2-yl)pyrazolo[1,5-a]pyridin-5-yl)-2-(pyridin-2-yloxy)acetamide]",11 to 100 nM
3,"N#CCCC(=O)Nc1ccn2ncc(-c3cccc(C4CCCNC4)n3)c2c1 (stereo not shown) [Example 74, 3-cyano-N-(3-(6-(piperidin-3-yl)pyridin-2-yl)pyrazolo[1,5-a]pyridin-5-yl)propanamide]",11 to 100 nM
4,"N#CCCCC(=O)Nc1ccn2ncc(-c3cccc(C4CCCNC4)n3)c2c1 (stereo not shown) [Example 75, 4-cyano-N-(3-(6-(piperidin-3-yl)pyridin-2-yl)pyrazolo[1,5-a]pyridin-5-yl)butanamide]",11 to 100 nM
5,"O=C(COc1ccncc1)Nc1ccn2ncc(-c3cccc(C4CCCNC4)n3)c2c1 (stereo not shown) [Example 76, N-(3-(6-(piperidin-3-yl)pyridin-2-yl)pyrazolo[1,5-a]pyridin-5-yl)-2-(pyridin-4-yloxy)acetamide]",11 to 100 nM

# The remaining lines, values ahead:
row,IC50,SMILES
1,11 to 100 nM,"N#CCC(=O)Nc1ccn2ncc(-c3cccc(C4CCCNC4)n3)c2c1 (stereo not shown) [Example 77, 2-cyano-N-(3-(6-(piperidin-3-yl)pyridin-2-yl)pyrazolo[1,5-a]pyridin-5-yl)acetamide]"
2,11 to 100 nM,"O=C(Cc1cccnc1)Nc1ccn2ncc(-c3cccc(C4CCCNC4)n3)c2c1 (stereo not shown) [Example 78, N-(3-(6-(piperidin-3-yl)pyridin-2-yl)pyrazolo[1,5-a]pyridin-5-yl)-2-(pyridin-3-yl)acetamide]"
3,11 to 100 nM,"O=C(CNc1ccncc1)Nc1ccn2ncc(-c3cccc(C4CCCNC4)n3)c2c1 (stereo not shown) [Example 79, N-(3-(6-(piperidin-3-yl)pyridin-2-yl)pyrazolo[1,5-a]pyridin-5-yl)-2-(pyridin-4-ylamino)acetamide]"
4,11 to 100 nM,"O=C(CNc1cccnc1)Nc1ccn2ncc(-c3cccc(C4CCCNC4)n3)c2c1 (stereo not shown) [Example 80, N-(3-(6-(piperidin-3-yl)pyridin-2-yl)pyrazolo[1,5-a]pyridin-5-yl)-2-(pyridin-3-ylamino)acetamide]"
5,11 to 100 nM,"O=C(Cc1ccccn1)Nc1ccn2ncc(-c3cccc(C4CCCNC4)n3)c2c1 (stereo not shown) [Example 81, N-(3-(6-(piperidin-3-yl)pyridin-2-yl)pyrazolo[1,5-a]pyridin-5-yl)-2-(pyridin-2-yl)acetamide]"
